Reference: patent US9493466B2, “Treatment of cancer with TOR kinase inhibitors” (Signal Pharmaceuticals, LLC, priority 2011, dated 2016)

Tested on: U87MG tumors
Experiment: U87MG human glioblastoma xenograft model (Compound 1)
Assay type: in vivo, SCID mice
Details: positive control, 4 mg/kg Q3D IP, 18 days
Protocol: U87MG Human Glioblastoma Xenograft Model (Compound 1). Efficacy Studies: Groups of female SCID mice bearing U87MG tumors (n=8-10/group) were dosed orally with vehicle or Compound 1 throughout the study, starting when tumor volumes reached approximately 200 mm^3. The twice daily (BID) dose groups were dosed with a 10-hour separation between morning and evening doses. In the positive control group, rapamycin was administered Q3D via intraperitoneal (IP) route. At the end of each study, plasma and/or tumor samples were collected.
Cell Line and Culture. U87MG cell line was obtained from American Tissue Culture Collection (ATCC) (Gaithersberg, Md.) and grown in growth medium containing MEM, 2 mM L-glutamine, 0.1 mM non-essential amino acids and 1 mM sodium pyruvate and 10% fetal bovine serum (FBS). The cells were detached from tissue culture flasks using trypsin-EDTA. After centrifugation, the cell pellets were suspended in phosphate buffered saline (PBS) and counted using a hemocytometer. The final volume was adjusted to 5×10^6 cells/0.1 mL of PBS.
Tumor Cell Inoculation. Mice were anesthetized with inhaled isoflurane and then inoculated with U87MG tumor cells subcutaneously on the right hind leg with 0.1 mL of a single cell suspension in PBS using a sterile 1 mL syringe fitted with a 26 gauge needle. Following inoculation, the mice were returned to microisolator cages
Randomization of Animals. Following inoculation, tumors were allowed to grow to about 200 mm^3 prior to randomization. The typical number of days required for tumors to reach 200 mm^3 was 14-15 days. The tumor of each animal was measured and animals with tumors ranging between 175-250 mm^3 were included in the study. Animals from the pool were then distributed randomly into various cages and the cages were randomly assigned to vehicle, positive control, or test article groups. All of the mice were tagged with metal ear tags on the right ear.
Test Article Preparation and Administration. Suspensions of Compound 1 were prepared in aqueous 0.5% CMC and 0.25% Tween-80. The formulations were homogenized using a Teflon™ pestle and mortar (Potter-Elvehjem tissue grinder). Between the doses, the formulated compound was stored under constant stirring using a magnetic stirrer at 4° C. in the dark. The test article and vehicle were administered by oral gavage. The positive control, rapamycin, was prepared as solution in 2% ethanol, 45% polyethyleneglycol 400, and 53% saline and administered by IP injection. Sterile syringes and gavage needles were used for compound administration. All of the procedures including injections were done in biosafety cabinets disinfected with 70% ethanol prior to use.
Tumor Measurements. Tumor volumes were determined prior to the initiation of treatment and were considered as the starting volumes. Thereafter, tumors were measured twice a week for the duration of the study. The long and short axes of each tumor were measured using a digital caliper in millimeters. Tumor volumes were calculated using the formula: width^2×length/2. The tumor volumes were expressed in cubic millimeters (mm^3).
Tumor Growth Delay (TGD) Calculations. Tumor growth delay is the difference in days for treated versus control tumors to reach a volume of 1000 mm^3. The TGD was calculated from the data plotted in a graph format.
Body Weight Measurements. Initial body weights were recorded prior to the initiation of treatment using a digital scale. The percent body weight change during the course of the study was calculated using initial body weight measurements. Body weights of each animal were measured twice a week at the same time as the tumor measurements. Body weights were measured more frequently if significant decreases were noted during the course of the study.

CO[C@H]1C[C@@H]2CC[C@@H](C)[C@@](O)(O2)C(=O)C(=O)N2CCCC[C@H]2C(=O)O[C@H]([C@H](C)C[C@@H]2CC[C@@H](O)[C@H](OC)C2)CC(=O)[C@H](C)/C=C(\C)[C@@H](O)[C@@H](OC)C(=O)[C@H](C)C[C@H](C)/C=C/C=C/C=C/1C [rapamycin, reference compound]
change in body weight: No significant change
